Experimental data: patent US11319274B2, “Process for the preparation of polymorph form B of treprostinil diethanolamine salt” (CHINOIN GYÓGYSZER ÉS VEGYÉSZETI TERMÉKEK GYÁRA ZRT., priority 2018, dated 2022)
Counter-ions that a name gives are not always drawn. Like-named read-outs stand apart in the source and are kept apart here.

Key:
[1] = hygroscopic character of the polymorph forms; type: physicochemical; details: crystals from methanol-methyl tertiary-butyl ether at −70° C. (example 17)
Description: (§1) The two polymorph forms (forms A and B) of the crystalline treprostinil diethanolamine salt were first described in patent specification WO2005/007081. The polymorph forms were characterized by their melting point, X-ray powder diffraction pattern, DSC (Differential Scanning calorimetry) and TGA (Thermogravimetric Analysis) curves, and by their hygroscopic character.
(§2) Polymorph form B of treprostinil diethanolamine salt was obtained also if the salt was dissolved in methanol, the solution was set to opalescent with methyl tertiary-butyl ether at 45° C. and then crystallisation was completed at room temperature (yield 87%) (example 16.). […] This form is named polymorph form C (example 17.).

[2] = relative stability / transformation of the polymorph forms; type: physicochemical; details: on the basis of the DSC curve; transforms in the DSC tube into the more stable, higher melting form
Description: as §1
Publication Organic Process & Development, 2009, 13, 242-249. (Crystallization Process Development for Stable Polymorph of Treprostinil; Batra, H.; Penmasta, R.; Phares, K.; Staszewski, J.; Tuladhar, S. M; D. A. Walsh, United Therapeutics) describes in detail the physical characteristics of the two polymorphs and the experiments carried out for their preparation.
as §2
DSC: • Instrument: METTLER TOLEDO DSC1 STARe System, Stare basic V9.30 • Method: Starting temperature: 30° C. • Final temperature: 150° C. • Heating rate: 5° C./min • Amount: 2-6 mg, perforated aluminum crucible (40 μl)

[3] = crystalline polymorph, as stated in WO2005/007081; cited from earlier work
[4] = cited from earlier work; for polymorph stability: as stated in WO2005/007081

hygroscopic character [1] | polymorph stability [2] | Compound | hygroscopic character [3] | polymorph stability [4] | transformation on standing ([4]; Organic Process & Development, 2009, 13, 242-249) | transformation in suspension ([4]; suspension in organic solvents (1,4-dioxane, isopropanol, tetrahydrofuran, toluene), agitation at different temperatures, WO2005/007081)
highly hygroscopic | less stable form | CCCCC[C@H](O)CC[C@@H]1[C@H]2Cc3cccc(OCC(=O)O)c3C[C@H]2C[C@H]1O [polymorph form C, (1R,2R,3aS,9aS)-2-[2-Hydroxy-1-[3(S)-hydroxyoctyl]-2,3,3a,4,9,9a-hexahydro-1H-benz[f]inden-5-yloxy] acetic acid diethanolamine salt] | – | – | – | –
– | – | CCCCC[C@H](O)CC[C@@H]1[C@H]2Cc3cccc(OCC(=O)O)c3C[C@H]2C[C@H]1O [form B, (1R,2R,3aS,9aS)-2-[2-Hydroxy-1-[3(S)-hydroxyoctyl]-2,3,3a,4,9,9a-hexahydro-1H-benz[f]inden-5-yloxy] acetic acid diethanolamine salt] | much less hygroscopic | more stable | – | –
– | – | CCCCC[C@H](O)CC[C@@H]1[C@H]2Cc3cccc(OCC(=O)O)c3C[C@H]2C[C@H]1O [form A, (1R,2R,3aS,9aS)-2-[2-Hydroxy-1-[3(S)-hydroxyoctyl]-2,3,3a,4,9,9a-hexahydro-1H-benz[f]inden-5-yloxy] acetic acid diethanolamine salt] | hygroscopic | metastable | on standing transforms into the thermodynamically more stable form B | transforms into form B on agitation
